Measured values taken from patent US11278492B2 (priority 2018, dated 2022).

Experiments:
rat = experiment: 14-day sub-chronic toxicity in rat with nasal olanzapine delivery; type: in vivo; settings: nasal delivery (data not shown)
[1] = Phase 1 clinical trial, plasma olanzapine pharmacokinetics; settings: human, in vivo
Description: Randomization for Periods 1 and 2 was performed for each subject on Day 1.
In Period 1, subjects were assigned to 1 of 3 cohorts (n=12 per cohort). […] Dose administration occurred at Visit 2 on Day 1 (relative to each cohort). Each cohort was scheduled to allow time for Period 2 safety assessments to occur prior to dose escalation in the next cohort period 2 dosing. Subjects remained confined to the study site for 72 hours after dosing. Subjects returned to the study site on Days 5 and 6 (Visits 3 and 4) for follow-up assessments.
In Period 2, subjects returned to the study site after a washout period of at least 14 days. Subjects from each Period 1 cohort received a single dose of INP105 (5, 10 or 15 mg) or placebo in a 9:3 ratio, as outlined in Table 11. Dose administration occurred on Day 15. (Dosing was permitted to occur later than the calendar Day 15 as required for scheduling (up to 2 days) but not before Day 15.) Ascending-dose levels of INP105 (5, 10 or 15 mg) were administered to ascending cohort numbers as follows:
The following pharmacokinetic parameters were determined: Cmax, Tmax, Tlast, AUClast, and t1/2 where possible.

[2] = oral olanzapine tablets or disintegrating tablets, previously reported; cited from earlier work

In the case of `Cc1cc2c(s1)Nc1ccccc1N=C2N1CCN(C)CC1` [olanzapine], the “macroscopic or microscopic findings” value (rat) is reported as “No macroscopic or microscopic findings”, the Tmax ([1]; im, 5 mg) is reported as 19.8 to 21.6 min and the Tmax ([1]; inhaled or intranasal) is reported as 9.6 to 10.2 min. The Cmax ([1]; inhaled or intranasal, 15 mg) was no less than 30 ng/mL, the Tmax ([1]; po, 10 mg) was 120 min and the “time to peak plasma concentration (Tmax)” value [2] was 300 to 480 min.
